Assay results reported in ChEMBL document CHEMBL3244299, “Allylic esters as potential antitumor agents. Derivatives and analogues of 2,3-bis(hydroxymethyl)-7-oxabicyclo[2.2.1]hept-2-ene” (J Med Chem, 1979).
Activity calls are given as the source filed them. No cut-off for these calls is given here.

Experiments:
[1] = test system: L1210; assay: Antitumor activity against mouse L1210 cells allografted in mouse; type: functional, cell-based
[2] = test system: L1210; assay: Cytotoxicity against mouse L1210 cells assessed as growth inhibition at 10^-5 M after 40 hrs relative to control; type: functional; details: L1210, 40 h, read-out: GI
[3] = test system: L1210; assay: Cytotoxicity against mouse L1210 cells assessed as growth inhibition at 10^-4 M after 40 hrs relative to control; type: functional; details: L1210, 40 h, read-out: GI
[4] = test system: L1210; assay: Cytotoxicity against mouse L1210 cells assessed as growth inhibition at 10^-6 M after 40 hrs relative to control; type: functional; details: L1210, 40 h, read-out: GI
[5] = test system: L1210; assay: Cytotoxicity against mouse L1210 cells assessed as growth inhibition after 40 hrs; type: functional
[6] = test system: P388; assay: Antitumor activity against mouse P388 cells allografted in mouse assessed as tumor growth inhibition at 25 mg/kg relative to control; type: functional
[7] = species on record: Mus musculus; assay: Toxicity in mouse allografted with mouse P388 cells; type: organism-based

CCOC(=O)N1[C@@H]2O[C@@H](C(COC(C)=O)=C2COC(C)=O)N1C(=O)OCC was tested, and the Activity [1] was “inactive”, the inhibition of growth at 10 µM [2] was 41% and the inhibition of growth at 100 µM [3] was 78%. It also gave an inhibition of growth at 1 µM [4] of 13% and an ID50 [5] of 3 ×10⁻⁵ M.

CCCCNC(=O)OCC1=C(COC(=O)NCCCC)[C@@H]2O[C@H]1C(C(=O)OC)=C2C(=O)OC gave a T/C [6] of 123%.

With CC(=O)OCC1=C(COC(C)=O)[C@@H]2O[C@H]1[C@H](OC(C)=O)[C@@H]2OC(C)=O the Activity [1] was “inactive”, the inhibition of growth at 10 µM [2] was 19% and the inhibition of growth at 100 µM [3] was 34%. For the same compound, the inhibition of growth at 1 µM [4] was 1% and the ID50 [5] was over 1 ×10⁻⁴ M.

With COC(=O)C1=C(C(=O)OC)[C@H]2O[C@@H]1C(COC(C)=O)=C2COC(C)=O the Activity [1] was “inactive”, the inhibition of growth at 10 µM [2] was 93% and the inhibition of growth at 100 µM [3] was 93%. The inhibition of growth at 1 µM [4] was 93% and the IC50 ([5]; Mus musculus, L1210, 40 h, read-out: ID50 (the source's name)) was under 1000 nM.

For CNC(=O)OCC1=C(COC(=O)NC)[C@@H]2O[C@H]1C(C(=O)OC)=C2C(=O)OC, the Activity [7] was “Toxic”.

With CC(=O)OCC1=C(COC(C)=O)[C@@H]2O[C@H]1[C@H](O)[C@@H]2O the Activity [1] was “inactive”, the inhibition of growth at 10 µM [2] was 3% and the inhibition of growth at 100 µM [3] was 41%. It also gave an ID50 [5] of over 1 ×10⁻⁴ M.
